Results from patent US8071345B2, “Stabilized subtilisin composition” (Novozymes A/S, priority 2006, dated 2011).

Target: subtilisin (Bacillus licheniformis, UniProt P00780)
Assay: not given
Details: Keller et al, Biochem. Biophys. Res. Com. 176, 1991; cited from earlier work

Chain of subtilisin (P00780 106-379): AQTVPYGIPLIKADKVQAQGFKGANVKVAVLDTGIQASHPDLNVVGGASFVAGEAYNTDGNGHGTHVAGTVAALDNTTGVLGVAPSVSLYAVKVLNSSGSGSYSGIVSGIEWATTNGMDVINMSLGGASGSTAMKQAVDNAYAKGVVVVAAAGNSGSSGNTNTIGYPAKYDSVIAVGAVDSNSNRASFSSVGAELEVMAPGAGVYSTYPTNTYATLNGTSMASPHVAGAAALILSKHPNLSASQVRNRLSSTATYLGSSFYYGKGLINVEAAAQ

Row | SMILES | capacity as subtilisin inhibitor
1 | OB(O)c1cc(Cl)cc(Cl)c1 [3,5-dichlorophenylboronic acid] | particularly effective
2 | CB(O)O [methylboronic acid] | poorest inhibitor

Target: T1, Savinase (Lederbergia lenta, UniProt P29600)
T1 construct: Novozymes A/S
T1 sequence (P29600 1-269): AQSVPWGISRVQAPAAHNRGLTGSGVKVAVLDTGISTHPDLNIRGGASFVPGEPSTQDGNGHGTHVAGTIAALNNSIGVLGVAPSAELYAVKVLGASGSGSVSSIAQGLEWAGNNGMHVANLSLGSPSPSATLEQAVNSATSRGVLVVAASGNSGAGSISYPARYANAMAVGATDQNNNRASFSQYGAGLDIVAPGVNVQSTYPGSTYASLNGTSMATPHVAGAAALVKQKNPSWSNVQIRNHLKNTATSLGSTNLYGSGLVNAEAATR
Assay: biochemical
Details: not given
Protocol: The inhibition constant KI=[E][I]/[EI] for the inhibition of Savinase was determined using standard methods under the following conditions:
Substrate: Succinyl-Alanine-Alanine-Proline-para-nitro-anilide=SAAPFpNA (Sigma S-7388).
Buffer: 0.1 M phosphate buffer pH 7.5
Enzyme concentration in assay≈1×10^−8 M
The initial rate of substrate hydrolysis was determined with and without inhibitor at nine substrate concentrations in the range of 0.01 mM to 2 mM using an automated spectrophotometer.
The inhibition constant KI was determined using Sigma Plot 9.0, Enzyme Kinetics Module 1.1

Row | SMILES | Ki [mM]
3 | Nc1ccccc1C(=O)O [2-aminobenzoic acid] | 16
4 | O=C(O)Cc1ccccc1Cl [2-chlorophenylacetic acid] | 11
5 | O=Cc1ccc(O)c(O)c1 [3,4-dihydrozybenzaldehyde] | 11
6 | O=C(O)c1cccc(Cl)c1 [3-chlorobenzoic acid] | 4
7 | O=C(O)Cc1cccc(Cl)c1 [3-chlorophenylacetic acid] | 7
8 | O=C(O)c1ccccc1 [Benzoic Acid] | 22
9 | O=C(O)Cc1ccccc1 [Phenylacetic acid] | 10

Same assay, conditions: Example 1; 0.1 M phosphate buffer pH 7.5, 25° C., substrate SAAPFpNA 0.01-2 mM, enzyme ≈1×10^−8 M; read-out: Ki

Row | Ki [mM] | SMILES
10 | 25 | O=Cc1ccc(C(=O)O)cc1 [4-formylbenzoic acid]
11 | 9 | O=C(O)CCc1ccccc1 [Phenylpropionic acid]
12 | 99 | O=C(O)c1ccc(C(=O)O)cc1 [Terephtalic acid (4-carboxybenzoic acid)]

Row | SMILES | Ki [mM]
13 | O=C(O)c1cc(Cl)cc(Cl)c1 [3,5-dichorobenzoic acid] | 2

Same assay, conditions: Example 2, acids; 0.1 M phosphate buffer pH 7.5, 25° C., substrate SAAPFpNA 0.01-2 mM, enzyme ≈1×10^−8 M; read-out: Ki

Row | SMILES | Ki [mM]
14 | O=C(O)c1ccccc1Cl [2-chlorobenzoic acid] | 16
15 | O=C(O)c1cc(O)cc(O)c1 [3,5-dihydroxybenzoic acid] | 76
16 | O=C(O)CCc1cccc(Cl)c1 [3-(3-chlorophenyl)propionic acid] | 5
17 | O=C(O)CCc1ccc(Cl)cc1 [3-(4-chlorophenyl)propionic acid] | 10
18 | O=C(O)c1cccc(CCl)c1 [3-(chloromethyl)benzoic acid] | 32

Other lines, results leading:

Row | Ki [mM] | SMILES
19 | 43 | Nc1cccc(C(=O)O)c1 [3-aminobenzoic acid]
20 | 6 | O=C(O)c1cccc(Br)c1 [3-bromobenzoic acid]
21 | 17 | O=C(O)c1cccc(F)c1 [3-fluorobenzoic acid]
22 | 27 | O=Cc1cccc(C(=O)O)c1 [3-formylbenzoic acid]
23 | 29 | O=C(O)c1cccc(O)c1 [3-hydroxybenzoic acid]
24 | 9 | O=C(O)c1cccc(I)c1 [3-iodobenzoic acid]
25 | 9 | O=C(O)c1cccc([N+](=O)[O-])c1 [3-nitrobenzoic acid]
26 | 82 | Nc1ccc(C(=O)O)cc1 [4-aminobenzoic acid]
27 | 11 | O=C(O)Cc1ccc(Cl)cc1 [4-chlorophenylacetic acid]
28 | 19 | O=C(O)CCCc1ccccc1 [4-phenylbutyric acid]

Same assay, conditions: Example 3, aldehydes; 0.1 M phosphate buffer pH 7.5, 25° C., substrate SAAPFpNA 0.01-2 mM, enzyme ≈1×10^−8 M; read-out: Ki

Row | Ki [mM] | SMILES
29 | 16 | O=Cc1cccc(O)c1 [3-hydroxybenzaldehyde]

Tested on: proteolytic enzymes
Assay: not given
Details: as claimed in WO 92/19707; cited from earlier work

Row | SMILES | inhibitor of proteolytic enzymes
30 | CC(=O)Nc1cccc(B(O)O)c1 [acetamidophenyl boronic acid] | superior inhibitor
